# Source: patent US20100184809A1, “Heterocyclic FXR Binding Compounds” (PHENEX PHARMACEUTICALS AG, priority 2006, published 2010)
# How the values were obtained:
# [1] = Aqueous solubility assay, Protocol B, shake-flask method; type: physicochemical; conditions: aqueous buffer, 10 mM PBS buffer pH 7.4, 1% MeOH, room temperature, read-out: Aqueous solubility pH 7.4 (μM) (±standard deviation), shake-flask method
# Description: Protocol B, shake-flask method:
# Sample preparation: Sample and standard solution preparation is performed by mixing equal volumes of acetonitrile containing the internal standard (1 μM final concentration) with sample and calibration standard solutions (100 μl). After vigorously shaking (10 seconds) the samples are centrifuged (6000 g) for 5 minutes at 20° C. Aliquots of the particle-free supernatants are transferred to 200 μl sample vials and subsequently subjected to LC-MS/MS. Assay procedure: Test concentration was 100 μM in 10 mM PBS buffer pH 7.4 with a final MeOH concentration of 1%. The volume of the incubation solution was 500 μl. Depending on each compound's solubility in MeOH, the stock concentration and the incubation concentration was adapted. The test solutions in quadruplicates were shaken at 300 rpm over a 20 hours period at room temperature, followed by centrifugation at 20000 g for 30 minutes to separate the solid phase. 100 μl of particle free sample are added to 100 μl acetonitrile containing the internal standard. The aqueous solubility of the compounds was determined by measuring the concentration of the PBS buffer supernatant by HPLC-MS/MS.
# [2] = PAMPA permeability assay; type: in vitro ADME; conditions: % of compound found in the receiver compartment after 16 hours; PBS pH 7.4, 5% DMSO, 23° C.
# Description: Artificial membrane permeability was determined as follows: Tested compounds were dissolved to 10 mM in 100% DMSO. Permeability of compounds was measured in PBS (pH 7.4), 5% DMSO at 23° C. Safire (Tecan) plate reader was used for measurement the UV/Vis absorption. Protocol: Dilute stocks of tested compounds and controls with PBS to 1.67 mM and mix well by pipeitting, add 280 μl of PBS, 5% DMSO to acceptor plate, add 5 μl of 2% L-α-Phosphatidylcholine suspension in dodecane to the membrane of donor plate, Immediately add 98 μl of PBS to donor plate and make the sandwich with acceptor plate. Add 42 μl of tested compounds and controls dilutions to […], cover the plate, place into camera and incubate for 16 hours. Make the equilibrium plate, add 225 μl of PBS, 3,7% DMSO and 25 μl of tested compounds and controls dilutions to UV plate. After 16 hours pull the donor plate out and transfer 250 μl from acceptor plate to UV plate. Scan UV plate on Safire (Tecan) plate reader from […]. Permeability is reported in % of compound found in the receiver compartment after the incubation period.
# [3] = Mouse microsomal stability assay; type: in vitro ADME; conditions: pH 7.4; mouse liver microsomes, 37° C.
# Description: In vitro assays were performed to evaluate the metabolic stability of test items in liver microsomes originating from mouse. Preparation of working standards of test items: Working solutions were prepared for each calibration level by appropriate dilution of the corresponding stock solution, depending on each compound's solubility in acetonitrile or acetonitrile/water. Calibration standards were prepared by spiking 196 μl standard matrix with 4 μl of the corresponding working solution. The standard matrix consists of 0.15 mg/ml of microsomal protein in phosphate buffer (100 mM pH 7.4), the final standard solutions contain 2% acetonitrile. The samples and standard solutions were extracted with ethyl acetate, isolation of the compounds was performed by addition of 600 μl ethyl acetate containing the internal standard (0.1 μM) to 200 μl sample and calibration standard. After vigorously shaking (10 minutes) and centrifugation (5000 g) the aqueous phase was separated by freezing in an acetone/dry ice bath and the organic phase is evaporated to dryness using a vacuum centrifuge. Samples were reconstituted in 200 μl acetonitrile/water mix (1:1 v/v) and subsequently subjected to LC-MS/MS. The incubation solution (180 μl) consisted of 90 μl of a microsomal suspension of 0.33 mg/ml of protein in phosphate buffer 100 mM pH 7.4 and 90 μl NADP-regenerating system. The reaction was initiated by the addition of 20 μl of test compound (in 20% acetonitrile) to the preincubated microsomes/buffer mix at 37° C. 200 μl samples were removed from the incubation after 0, 5, 10, and 30 minutes and processed for ethyl acetate extraction as described above. Negative controls using boiled microsomes (boiling water bath, 25 minutes) without regenerating system were run in parallel. The amount of compound in the samples is expressed as percentage of remaining compound compared to time point zero (=100%). These percentages were plotted against the corresponding time points. Intrinsic clearance (CLint) and half-life (t1/2) estimates were determined using the rate of parent disappearance and following formula (1) and (2). (1) CLint=(−k)×V×fu. (2) t1/2=In2/−k. Where CLint=intrinsic clearance [μl/min/mg protein], t1/2=half life [min], k=slope from the linear regression of log [test compound] versus time plot [1/min]. V=6666.7; fu=unbound fraction in the blood. Applying this protocol gave microsomal stabilities for examples and reference compounds as listed below in Table 9: […]
solubility at 20 h [1],PAMPA Permeability [2],melting point,half-life [3],microsomal CLint [3],Structure (SMILES)
17.7 µM,7%,,,,"CC(C)c1onc(-c2c(Cl)cccc2Cl)c1COc1ccc(/C=C/c2cccc(C(=O)O)c2)c(Cl)c1 [Compound B, reference compound]"
,50%,,,,"Cc1nc(OCc2c(-c3c(Cl)cccc3Cl)noc2C(C)C)ccc1N(C)S(=O)(=O)c1ccc(C(=O)O)cc1 [Example 4, 4-(N-(6-((3-(2,6-dichlorophenyl)-5-isopropylisoxazol-4-yl)methoxy)-2-methylpyridin-3-yl)—N-methylsulfamoyl)benzoic acid]"
,,96.1 to 97.1 °C,38 min,120 µL/min/mg,"CC(C)c1onc(-c2c(Cl)cccc2Cl)c1COc1ccc(N(C)Cc2ccc(C(=O)O)cc2)c(C(F)(F)F)n1 [Example 28, 4(((6-((3-(2,6-Dichlorophenyl)-5-isopropylisoxazol-4-yl)methoxy)-2-(trifluoromethyl)pyridin-3-yl)(methyl)amino)methyl)benzoic acid]"
